Source: patent publication US20030013761A1, “Use of fumaric acid derivatives for treating mitochondrial diseases” (priority 2000, published 2003)
Structures can show the parent of a compound that is named as a salt.

Target: T1, succinate dehydrogenase (Homo sapiens, UniProt P31040)
T1 construct: Fibroblasts [0.75 m Val/I]; endogenous in cells
Experiment: Stimulating influence of fumaric acid derivatives on the enzyme activity of succinate dehydrogenase in fibroblasts
Type: cell-based
Conditions: Fibroblasts [0.75 m Val/I]
Description: Succinate dehydrogenase is part of the mitochondrial membrane and catalyses the […] of succinic acid to fumaric acid within the citrate cycle. Hydrogen is passed to the respiratory chain via the electron transfer flavoprotein. Thus, the activity of succinate dehydrogenase may influence the electron flow of the electron transport chain. The latter, in turn, is linked to the process of oxidative phosphorylation, the malfunction of which is considered a cause for mitochondrial diseases. Consequently, the activity of succinate dehydrogenase may also have an effect on oxidative phosphorylation.

T1 sequence (P31040 43-664): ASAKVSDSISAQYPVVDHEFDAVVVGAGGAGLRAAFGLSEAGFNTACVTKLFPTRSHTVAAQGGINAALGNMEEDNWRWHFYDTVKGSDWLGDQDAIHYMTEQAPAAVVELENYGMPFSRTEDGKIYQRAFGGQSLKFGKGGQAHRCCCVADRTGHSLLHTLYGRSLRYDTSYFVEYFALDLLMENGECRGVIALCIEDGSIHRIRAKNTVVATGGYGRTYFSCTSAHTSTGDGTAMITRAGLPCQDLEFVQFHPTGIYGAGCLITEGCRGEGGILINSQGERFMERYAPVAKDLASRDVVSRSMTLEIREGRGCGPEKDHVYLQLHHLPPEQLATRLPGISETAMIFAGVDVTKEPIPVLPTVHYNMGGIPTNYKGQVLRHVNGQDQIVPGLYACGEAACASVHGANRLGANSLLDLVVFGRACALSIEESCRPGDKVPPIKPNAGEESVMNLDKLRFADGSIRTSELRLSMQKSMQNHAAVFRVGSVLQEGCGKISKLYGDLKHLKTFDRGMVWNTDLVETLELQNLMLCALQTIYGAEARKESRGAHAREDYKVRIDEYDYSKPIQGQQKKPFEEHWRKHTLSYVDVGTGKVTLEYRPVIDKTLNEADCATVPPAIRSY
T1 sequence (P21912 29-280 partner): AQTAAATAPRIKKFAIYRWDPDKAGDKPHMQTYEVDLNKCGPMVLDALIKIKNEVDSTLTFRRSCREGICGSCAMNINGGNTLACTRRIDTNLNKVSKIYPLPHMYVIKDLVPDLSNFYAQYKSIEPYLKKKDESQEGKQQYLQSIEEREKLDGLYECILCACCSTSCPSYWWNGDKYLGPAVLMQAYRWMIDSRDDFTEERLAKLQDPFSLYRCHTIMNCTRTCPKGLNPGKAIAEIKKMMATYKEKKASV
T1 sequence (Q99643 30-169 partner): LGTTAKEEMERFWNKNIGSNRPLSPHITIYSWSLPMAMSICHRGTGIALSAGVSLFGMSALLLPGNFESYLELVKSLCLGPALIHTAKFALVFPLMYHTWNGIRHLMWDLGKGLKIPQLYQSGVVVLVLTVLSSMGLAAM
T1 sequence (O14521 57-159 partner): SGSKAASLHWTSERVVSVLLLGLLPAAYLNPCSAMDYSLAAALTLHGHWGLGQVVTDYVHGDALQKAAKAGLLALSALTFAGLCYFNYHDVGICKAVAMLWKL

Row | Compound | evaluation of the stimulating influence on the enzyme activity of succinate dehydrogenase (grade in words) | stimulation of the enzyme activity of succinate dehydrogenase (percent in brackets) [%]
1 | CCOC(=O)/C=C/C(=O)[O-].[Ca+] [Calcium monoethyl fumarate] | medium | 
2 | COC(=O)/C=C/C(=O)OC [Dimethyl fumarate] | strong | 838
3 | CCOC(=O)/C=C/C(=O)[O-].[Mg+] [Magnesium monoethyl fumarate] | weak | 
4 | CCOC(=O)/C=C/C(=O)O [Monoethyl fumarate] | weak | 
5 | CCOC(=O)/C=C/C(=O)[O-].[Zn+] [Zinc monoethyl fumarate] | strong | 107
